Experiments:
Format in all cases: in vivo
[1] = system: Abutilon theophrasti (ABUTH); test: Herbicidal post-emergence action, section B (Table B1); details: application rate 1280 g/ha, rated visually after about 3 weeks
Description: (§1) Seeds of mono- and dicotyledonous weed plants were placed in plastic pots in sandy loam soil (doubly sown with in each case one species of mono- or dicotyledonous weed plants per pot), covered with soil and cultivated in a greenhouse under controlled growth conditions. 2 to 3 weeks after sowing, the test plants were treated at the one-leaf stage. The compounds of the invention, formulated in the form of wettable powders (WP) or as emulsion concentrates (EC), were applied onto the green parts of the plants as aqueous suspension or emulsion with addition of 0.5% additive at a water application rate of 600 liters per hectare (converted). After the test plants had been kept in the greenhouse under optimum growth conditions for about 3 weeks, the activity of the preparations was rated visually in comparison to untreated controls. For example, 100% activity=the plants have died, 0% activity=like control plants.

Stellaria media (STEME) [2] = test: Herbicidal pre-emergence action, section A (Table A9); details: application rate 320 g/ha
Procedure, shortened: (§2)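 WP/EC formulations, aqueous, 0.5% additive, 600 l/ha → soil surface over seeds in sandy loam → greenhouse, optimum growth → visual % damage vs untreated at ca. 3 weeks.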

[3] = system: Digitaria sanguinalis (DIGSA); test: Herbicidal post-emergence action, section B (Table B12); details: application rate 1280 g/ha; visual rating about 3 weeks after treatment vs untreated controls
Description: as §1

Stellaria media (STEME) [4] = test: Herbicidal post-emergence action, section B (Table B9); details: application rate 1280 g/ha; visual rating about 3 weeks after treatment vs untreated controls
Procedure, shortened: (§3)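 Visual percent control about 3 weeks post-spray, relative to untreated plants. Application was to foliage at the one-leaf stage (2 to 3 weeks after sowing in sandy loam), using WP or EC formulations in water with 0.5% additive at 600 liters per hectare.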

Kochia scoparia (KCHSC) [5] = test: Herbicidal post-emergence action, section B (Table B4); details: application rate 320 g/ha; visual rating about 3 weeks after treatment vs untreated controls
Procedure, shortened: as §3

[6] = system: Amaranthus retroflexus (AMARE); test: Herbicidal post-emergence action, section B (Table B11); details: application rate 1280 g/ha; visual rating about 3 weeks after treatment vs untreated controls
Procedure, shortened: as §3

Poa annua (POAAN) [7] = test: Herbicidal pre-emergence action, section A (Table A7); details: visual grading after ca. 3 weeks vs untreated controls
Procedure, shortened: as §2

[8] = system: Alopecurus myosuroides (ALOMY); test: Herbicidal pre-emergence action, section A (Table A2); details: application rate 1280 g/ha; visual grading after ca. 3 weeks vs untreated controls
Excerpt: (§4) Seeds of mono- and dicotyledonous weed plants were sown in plastic pots (double sowings with one species of mono- and one species of dicotyledonous weed plants per pot), in sandy loam, and covered with soil. The compounds according to the invention, formulated in the form of wettable powders (WP) or as emulsifiable concentrates (EC), were applied to the surface of the covering soil as aqueous suspension or emulsion, with the addition of 0.5% of an additive, at an application rate of 600 l of water per hectare (converted). Following treatment, the pots were placed in a greenhouse and kept under optimum growth conditions for the test plants. The visual grading of the damage to the test plants was carried out after ca. 3 weeks in comparison to untreated controls (herbicidal effect in percent (%): 100% effect=plants have died off, 0% effect=as control plants).

Setaria viridis (SETVI) [9] = test: Herbicidal pre-emergence action, section A (Table A8); details: application rate 1280 g/ha
Procedure, shortened: as §2

[10] = system: Matricaria inodora (MATIN); test: Herbicidal pre-emergence action, section A (Table A6); details: application rate 1280 g/ha; visual grading after ca. 3 weeks vs untreated controls
Procedure, shortened: as §2

Lolium rigidum (LOLRI) = test: Herbicidal pre-emergence action, section A (Table A5); details: application rate 320 g/ha; visual grading after ca. 3 weeks vs untreated controls
Procedure, shortened: as §2

[11] = system: Digitaria sanguinalis (DIGSA); test: Herbicidal pre-emergence action, section A (Table A12); details: application rate 1280 g/ha
Procedure, shortened: as §2

Veronica persica (VERPE) [12] = test: Herbicidal post-emergence action, section B (Table B10); details: application rate 320 g/ha; visual rating about 3 weeks after treatment vs untreated controls
Procedure, shortened: as §3

Kochia scoparia (KCHSC) [13] = test: Herbicidal pre-emergence action, section A (Table A4); details: visual grading after ca. 3 weeks vs untreated controls
Procedure, shortened: as §2

[14] = system: Amaranthus retroflexus (AMARE); test: Herbicidal pre-emergence action, section A (Table A11)
Procedure, shortened: as §2

[15] = system: Echinochloa crus-galli (ECHCG); test: Herbicidal pre-emergence action, section A (Table A3); details: visual grading after ca. 3 weeks vs untreated controls
Procedure, shortened: as §2

Poa annua (POAAN) [16] = test: Herbicidal post-emergence action, section B (Table B7); details: application rate 1280 g/ha; visual rating about 3 weeks after treatment vs untreated controls
Description: as §1

Veronica persica (VERPE) [17] = test: Herbicidal pre-emergence action, section A (Table A10); details: application rate 1280 g/ha
Procedure, shortened: as §2

Setaria viridis (SETVI) [18] = test: Herbicidal post-emergence action, section B (Table B8); details: application rate 1280 g/ha; visual rating about 3 weeks after treatment vs untreated controls
Description: as §1

[19] = system: Abutilon theophrasti (ABUTH); test: Herbicidal pre-emergence action, section A (Table A1); details: application rate 1280 g/ha; visual grading after ca. 3 weeks vs untreated controls
Excerpt: as §4

[20] = system: Triticum aestivum (TRZAS); test: Pre-emergence effects on crop plants, section D (Table D2); details: application rate 80 g/ha; visual grading after ca. 3 weeks
Excerpt: (§5) Seeds of mono- and dicotyledonous weed plants and crop plants were sown, in plastic or organic planting pots, in sandy loam and covered with soil. The compounds according to the invention, formulated in the form of wettable powders (WP) or as emulsifiable concentrates (EC), were applied to the surface of the covering soil as aqueous suspension or emulsion, with the addition of 0.5% of an additive, at an application rate of 600 l of water/ha (converted).
(§6) Following treatment, the pots were placed in a greenhouse and kept under optimum growth conditions for the test plants. The visual grading of the damage to the test plants was carried out after ca. 3 weeks in comparison to untreated controls (herbicidal effect in percent (%): 100% effect=plants have died off, 0% effect=as control plants).
(§7) Tables D1 to D5 below show the effects of various compounds of the general formula (I) according to Table 1 on various crop plants and an application rate corresponding to 320 g/ha or below obtained by the experimental procedure mentioned above in Biological Examples, Section C.

[21] = system: Triticum aestivum (TRZAS); test: Post-emergence effects on crop plants, section F (Table F2); details: Triticum aestivum, 504 h, application rate 320 g/ha, read-out: post-emergence activity against TRZAS in %
Excerpt: (§8) Seeds of mono- and dicotyledonous weed plants and crop plants were sown, in plastic or organic planting pots, in sandy loam, covered with soil and grown in a greenhouse under controlled growth conditions. 2 to 3 weeks after sowing, the test plants were sprayed in the single-leaf stage. The compounds according to the invention, formulated in form of wettable powders (WP) or as emulsifiable concentrates (EC), were sprayed onto the green plant parts as aqueous suspension or emulsion, with the addition of 0.5% of an additive, at an application rate of 600 l of water/ha (converted). The test plants were placed in the greenhouse for ca. 3 weeks under optimum growth conditions, and then the effect of the preparations was assessed visually in comparison with untreated controls (herbicidal effect in percent (%): 100% effect=plants have died off, 0% effect=as control plants). Tables F1 to F4 below show the effects of selected compounds of the general formula (I) according to Table 1 on various crop plants and an application rate corresponding to 320 g/ha or below obtained by the experimental procedure mentioned above.

Zea mays (ZEAMX) = test: Post-emergence effects on crop plants, section F (Table F1); details: Zea mays, 504 h, application rate 320 g/ha, read-out: post-emergence activity against ZEAMX in %
Excerpt: as §8

Glycine max (GLXMA) [22] = test: Pre-emergence effects on crop plants, section D (Table D4); details: application rate 80 g/ha; visual grading after ca. 3 weeks
Excerpt: as §5, §6, §7

[23] = system: Amaranthus retroflexus (AMARE); test: Herbicidal pre-emergence action, section C (Table C11); details: Amaranthus retroflexus, pre-emergence, 504 h; application rate 320 g/ha; visual grading after ca. 3 weeks; read-out: pre-emergence activity against AMARE in %
Excerpt: Seeds of mono- and dicotyledonous weed plants and crop plants were sown, in plastic or organic planting pots, in sandy loam and covered with soil. The compounds according to the invention, formulated in the form of wettable powders (WP) or as emulsifiable concentrates (EC), were applied to the surface of the covering soil as aqueous suspension or emulsion, with the addition of 0.5% of an additive, at an application rate of 600 l of water/ha (converted). Following treatment, the pots were placed in a greenhouse and kept under optimum growth conditions for the test plants. The visual grading of the damage to the test plants was carried out after ca. 3 weeks in comparison to untreated controls (herbicidal effect in percent (%): 100% effect=plants have died off, 0% effect=as control plants).

Glycine max (GLXMA) [24] = test: Post-emergence effects on crop plants, section F (Table F4); details: Glycine max, 504 h, application rate 80 g/ha, read-out: post-emergence activity against GLXMA in %
Excerpt: as §8

Compound: Cc1ccccc1-c1nc2c(cc1Br)SCN2B1NB(N)N1 [Example I-056]
- post-emergence activity against ABUTH in % [1]: 90%
- pre-emergence activity against STEME in % (Stellaria media (STEME) [2]): 90%
- post-emergence activity against DIGSA in % [3]: 90%
- post-emergence activity against STEME in % (Stellaria media (STEME) [4]): 90%
- post-emergence activity against KCHSC in % (Kochia scoparia (KCHSC) [5]): 90%
- post-emergence activity against AMARE in % [6]: 90%
- pre-emergence activity against POAAN in % (Poa annua (POAAN) [7]; application rate 1280 g/ha): 100%
- pre-emergence activity against ALOMY in % [8]: 90%
- pre-emergence activity against SETVI in % (Setaria viridis (SETVI) [9]): 100%
- pre-emergence activity against MATIN in % [10]: 90%
- pre-emergence activity against LOLRI in % (Lolium rigidum (LOLRI)): 100%
- pre-emergence activity against DIGSA in % [11]: 100%
- post-emergence activity against VERPE in % (Veronica persica (VERPE) [12]): 90%
- pre-emergence activity against KCHSC in % (Kochia scoparia (KCHSC) [13]; application rate 1280 g/ha): 100%
- pre-emergence activity against AMARE in % ([14]; application rate 320 g/ha): 90%
- pre-emergence activity against ECHCG in % ([15]; application rate 1280 g/ha): 100%
- post-emergence activity against POAAN in % (Poa annua (POAAN) [16]): 90%
- pre-emergence activity against VERPE in % (Veronica persica (VERPE) [17]): 90%
- post-emergence activity against SETVI in % (Setaria viridis (SETVI) [18]): 90%

Compound: Cc1cc2c(nc1-c1cccc(C)c1C)N(C(=O)C1(C)CC(Cl)=NO1)CS2 (stereo not drawn) [Example I-138]
- post-emergence activity against ABUTH in % [1]: 90%
- pre-emergence activity against STEME in % (Stellaria media (STEME) [2]): 90%
- post-emergence activity against STEME in % (Stellaria media (STEME) [4]): 90%
- post-emergence activity against KCHSC in % (Kochia scoparia (KCHSC) [5]): 90%
- pre-emergence activity against ABUTH in % [19]: 90%
- post-emergence activity against AMARE in % [6]: 100%
- pre-emergence activity against POAAN in % (Poa annua (POAAN) [7]; application rate 320 g/ha): 100%
- pre-emergence activity against SETVI in % (Setaria viridis (SETVI) [9]): 100%
- pre-emergence activity against MATIN in % [10]: 90%
- pre-emergence activity against DIGSA in % [11]: 90%
- pre-emergence activity against KCHSC in % (Kochia scoparia (KCHSC) [13]; application rate 320 g/ha): 90%
- pre-emergence activity against AMARE in % ([14]; application rate 1280 g/ha): 90%
- pre-emergence activity against ECHCG in % ([15]; application rate 320 g/ha): 90%
- post-emergence activity against POAAN in % (Poa annua (POAAN) [16]): 90%

Compound: Cc1cc2c(nc1-c1cccc(F)c1F)N(S(C)(=O)=O)CS2(=O)=O [Example I-151, 5-(2,3-difluorophenyl)-3-(methylsulfonyl)-6-methyl-2,3-dihydro[1,3]thiazolo[4,5-b]pyridine 1,1-dioxide]
- pre-emergence activity against TRZAS in % (crop plant damage) [20]: 0%
- percent crop plant damage (wheat, post-emergence) at 320 g/ha [21]: 0%
- percent crop plant damage (phytotoxicity) on Zea mays, post-emergence at 320 g/ha (Zea mays (ZEAMX)): 0%
- pre-emergence activity against GLXMA in % (crop plant damage) (Glycine max (GLXMA) [22]): 0%
- pest or weed control at 320 g/ha [23]: 100%
- percent crop plant damage at 80 g/ha (Glycine max (GLXMA) [24]): 0%
